The values that follow come from article PMC7345095, “New Synthetic Nitro-Pyrrolomycins as Promising Antibacterial and Anticancer Agents” (Antibiotics, 2020).

Experiment [1] deals with HCT116 colon cancer cell line. Nature of the experiment: MTT viability assay. Format: cell-based. Conditions: for IC50: MTT, 48 h of treatment; for C-SI (Cancer Selectivity Index), HCT116: ratio of IC50 of normal hTERT-RPE-1 to that of HCT116, first value of the cell. Here is the method: (§1) The HCT116 colon cancer cell line (ATCC® CCL-247™), the MCF 7 breast cancer cell line (ATCC® HTB-22™) and the hTERT RPE-1 -immortalized retinal pigment epithelial cell line (ATCC® CRL-4000™) used in this study were cultured in DMEM medium (Gibco, Paisley, UK), supplemented with 1% glutamine, 10% heat-inactivated fetal bovine serum and 100U/mL penicillin and 100 μg/mL streptomycin, as already described, and maintained at 37 °C and 5% CO2.
(§2) Cells were plated at 5 × 10^3 cells/well in 96-well plates and incubated for 24 h prior to treatment for further 48 h of different concentrations of PMs. After incubation, a sample of 20 μL of Thiazolyl Blue Tetrazolium Bromide (5 mg mL^−1) in PBS was added to each well and cultured for 2h at 37 °C in CO2 incubator. After removing the medium containing MTT and three washes with PBS, 100 μL of warm DMSO was added to each well to dissolve formazan. Samples were shaken for 10 min, at room temperature in the dark, and the absorbance was recorded at 570 nm using a microplate reader (Spark® 20M Tecan Trading AG, Switzerland). Percentage of cell viability with respect to untreated control cells (vehicle control) was calculated after subtraction of the blank. The IC50 values, that is the concentration necessary to inhibit the 50% of cell growth, was calculated using a dose-response model, obtained from sigmoidal fitting of response curves of percent inhibition versus logarithmic concentration of PMs, using Graph Pad Prism software. Each result represents the mean value of three different experiments performed in triplicate.

Experiment [2] relates to MCF 7 breast cancer cell line. The experiment can be described thus: MTT viability assay. Format: cell-based. Conditions: for IC50: MTT, 48 h of treatment; for C-SI (Cancer Selectivity Index), MCF 7: ratio of IC50 of normal hTERT-RPE-1 to that of MCF 7, second value of the cell. Here is the method:
as §1, §2

Experiment [3] concerns HCT116 cells. Nature of the experiment: Acridine orange/ethidium bromide (AO/EB) staining. Conditions: for AO/EB fluorescence of treated HCT116 cells (type of cell death): treated at IC50 for 24 and 48 h. Format: cell-based. The source says: Cells were immediately observed under a fluorescent microscopy (Carl Zeiss) at 630 × magnification.
The next experiment has as its system S. aureus. The experiment can be described thus: MIC by absorbance at 600 nm after overnight challenge. The format is cell-based. Conditions: Staphylococcus aureus, LB medium, absorbance 600 nm. Here is the method:
(§3) Kill curve assays were performed to test the antimicrobial efficacy of pyrrolomycins (i.e., 1, 2, 5a, 5b, 5c, 5d), as well as that of the natural PM-C against the indicator pathogen Staphylococcus aureus ATCC 25923 and Pseudomonas aeruginosa ATCC 10145 strains. Briefly, a single colony of either S. aureus or P. aeruginosa strains was picked up and pre-cultivated (ca. 16 h) at 37 °C with shacking (160 rpm) in Luria Bertani medium (hereinafter named as LB and composed of (g L^−1): sodium chloride, 10; yeast extract, 5; tryptone, 10). The same medium was solidified by adding 15 g L^−1 of bacteriological agar when needed. Bacterial cells were then inoculated (1% v/v) in LB medium amended with increasing concentrations—ranging from 0 to 100 μM as initial concentration—of each pyrrolomycin tested, challenging the cultures for 24 h and incubating them as reported above. The actual number of viable colony forming units per milliliter of culture (CFU mL^−1) of each bacterial strain, who survived the challenge exerted by pyrrolomycins, was evaluated through the spot plate count method and compared to unchallenged cultures, as reported elsewhere. The data are reported as average values (n = 3) of CFU mL^−1 in the logarithmic (Log10) scale with standard deviation (SD). Evaluation of the MIC of PM-5c, and -5d against S. aureus and of PM-5d against P. aeruginosa was performed by incubating 1% (v/v) of an overnight bacterial suspension in LB medium in presence of increasing concentrations of the PMs. As a control, MIC of PM-C was measured. At the time of the inoculum and after overnight challenge, the absorbance of the cultures at 600 nm, which is an indirect way to measure the bacterial cell growth, was registered using a Spark™ 10 M multimode microplate reader measuring. The experiment was carried out in triplicate, being the absorbance corrected by subtracting that of the culture medium amended with the corresponding PM tested.

A further experiment relates to P. aeruginosa. The description is as above. Conditions: Pseudomonas aeruginosa, LB medium, absorbance 600 nm. The format is cell-based. Here is the method:
as §3

Experiment [4] has as its system HCT116 cells. The experiment can be described thus: Morphological assessment, phase contrast inverted microscope. Format: cell-based. Conditions: 0.1 µM (sub-inhibitory), 24 h. Here is the method: HCT116 cells were seeded in 24 well culture plates with a cell density of 1 × 10^5 cells/well. After 24 h cells were incubated for 24 h with different concentration of the selected PMs, and observed under a phase contrast inverted microscope (Carl Zeiss) at 200× magnification, for morphological changes assessment.

In experiment [5] the test system is Staphylococcus aureus ATCC 25923. The experiment can be described thus: Kill curve assay (MBC), planktonic cells. Format: cell-based. Conditions: for MBC: Staphylococcus aureus, read-out: MBC S. aureus. Here is the method:
as §3

For experiment [6], the system named is Pseudomonas aeruginosa ATCC 10145. Nature of the experiment: Kill curve assay (MBC), planktonic cells. Format: cell-based. Conditions: for MBC: read-out: MBC P. aeruginosa. Here is the method:
as §3

Another experiment concerns P. aeruginosa cells. Nature of the experiment: AO/EB double staining of bacterial cells. The format is cell-based, Pseudomonas aeruginosa. Conditions: 24 h. Here is the method: It is noteworthy to highlight that the main difference between PM-C and 5d relies only on the presence of the nitro group in the position R3 of the latter, which is likely responsible for its enhanced electronegativity and, therefore, better biological reactivity over PM-C.
Figure 3 Fluorescence micrographs of P. aeruginosa cells treated for 24 h with 100 μM of PM-C or 10 μM of PM 5d after AO/EB double staining. Control represents untreated cells. Green (AO) are viable cells, red (EB) dead cells, and orange vital cells with damaged membranes.

The test system of experiment [7] is hTERT RPE-1 immortalized retinal pigment epithelial cell line. Nature of the experiment: MTT viability assay (cytotoxicity on normal cells). The format is cell-based. Conditions: read-out: IC50 hTERT-RPE-1. Here is the method:
as §1, §2

The test system of experiment [8] is HCT116 and MCF 7 cancer cell lines. Nature of the experiment: MTT viability assay, statements over both cancer cell lines. Conditions: for IC50: MTT, 48 h challenge, group statement, read-out: IC50, regardless of the cancer cell line (HCT116, MCF 7); for C-SI, mean value among the two cancer cell lines: mean of HCT116 and MCF 7 C-SI. Format: cell-based. Here is the method:
as §1, §2

A further experiment deals with Escherichia coli. On the set-up: method as in PMID 31405863, PMID 15730262. Conditions: natural PMs; cited from earlier work.

≈ marks a conversion by molar mass, not a printed value. Where two headings read alike, the source gives them in different places.

For the compound `O=C(c1cc(Cl)cc(Cl)c1O)c1[nH]c(Cl)c(Cl)c1[N+](=O)[O-]` [PM 5d, (3,5-Dichloro-2-hydroxyphenyl)(4,5-dichloro-3-nitro-1H-pyrrol-2-yl)methanone], the IC50 in experiment [1] (Homo sapiens, HCT-116, 48 h) was 1560 nM; in [1] it was 1600 ± 200 nM; in experiment [2] (Homo sapiens, MCF7, 48 h), 1570 ± 390 nM; in [2], 1600 ± 400 nM; in [7] (hTERT-RPE1, MTT, 48 h of treatment, normal epithelial cells) it was 225000 ± 22700 nM; in [8], 800 to 2250 nM. Further, in experiment [1], the “C-SI (Cancer Selectivity Index), HCT116” value was found to be 143.3. In addition, in experiment [2], the “C-SI (Cancer Selectivity Index), MCF 7” value is recorded as 143.4. In addition, in the experiment on HCT116 cells [3] (treated at IC50, after 48 h), the “late apoptosis by AO/EB staining, HCT116” value was “reddish orange cells”. Moreover, the “AO/EB fluorescence of treated HCT116 cells (type of cell death)” value in the experiment on HCT116 cells [3] is reported as “orange fluorescence”. In addition, the minimum inhibitory concentration (MIC) is 2 µM (≈ 0.74 µg/mL) in the experiment on S. aureus and more than 20 µM with P. aeruginosa. The “morphology of treated HCT116 cells” value with HCT116 cells [4] was “more fibroblastic and less clumped morphology”. The MBC in [5] (ATCC25923, minimal bactericidal concentration, planktonic cells, 24 h challenge, LB medium) is 7.5 µM (≈ 2.77 µg/mL); in [6] (Pseudomonas aeruginosa, ATCC10145, minimal bactericidal concentration, planktonic cells, 24 h challenge, LB medium), 30 µM (≈ 11.1 µg/mL). The “B-SI (Bacterial Selectivity Index), S. aureus” value in experiment [5] (ratio of IC50 of normal hTERT-RPE-1 to MBC of S. aureus, second value of the cell) is reported as 30. Moreover, the “B-SI (Bacterial Selectivity Index), P. aeruginosa” value in experiment [6] (ratio of IC50 of normal hTERT-RPE-1 to MBC of P. aeruginosa, first value of the cell) is 7.5. Further, the “AO/EB staining colour of P. aeruginosa cells” value with P. aeruginosa cells (10 μM (sub-inhibitory)) is on record as “either orange (indicating that cell membranes were damaged due to the entrance of EB) or red (indicating not viable cells)”. For the same compound, the “C-SI, mean value among the two cancer cell lines” value in [8] came to 143.
Turning to `O=C(c1cc(Cl)c(Cl)[nH]1)c1cc(Cl)cc(Cl)c1O` [PM-C, reference compound], the concentration for half-maximal inhibition (IC50) is 800 ± 300 nM in experiment [1] (Homo sapiens, HCT-116, 48 h); 1500 ± 400 nM in experiment [2] (Homo sapiens, MCF7, 48 h); 8300 ± 1900 nM in [7] (hTERT-RPE1, 48 h); 800 to 2250 nM in experiment [8]. In addition, in [1], the “C-SI (Cancer Selectivity Index), HCT116” value was 10.4. Moreover, the “C-SI (Cancer Selectivity Index), MCF 7” value in [2] turned out to be 5.5. Further, the “MIC against Escherichia coli” value in the experiment on Escherichia coli is given as “more than 300 μM”. In the experiment on HCT116 cells [3], the “AO/EB fluorescence of treated HCT116 cells (type of cell death)” value was “orange fluorescence”. Besides, the minimum inhibitory concentration (MIC) was 1 µM (≈ 0.325 µg/mL) with S. aureus and more than 40 µM with P. aeruginosa. The “morphology of treated HCT116 cells” value in the experiment on HCT116 cells [4] is “more fibroblastic and less clumped morphology”. The minimal bactericidal concentration (MBC) in [5] (ATCC25923, 24 h) is 90 µM (≈ 29.2 µg/mL); in experiment [6] (Pseudomonas aeruginosa, ATCC10145, 24 h), more than 100 µM; in experiment [6] (minimal bactericidal concentration, planktonic cells, 24 h challenge, LB medium) it was more than 100 µM. Besides, in experiment [5] (increasing concentrations up to 80 μM, 24 h), the “decrease in the number of vital S. aureus cells” value is ~ 3 log. In [6] (highest concentration tested 100 μM, 24 h), the “log reduction in the number of viable CFUs, P. aeruginosa” value was “did not display any antimicrobial effect”. Further, in the experiment with P. aeruginosa cells (100 μM), the “AO/EB staining colour of P. aeruginosa cells” value was “appeared green”. Also, in experiment [8], the “C-SI, mean value among the two cancer cell lines” value came to 8.
